Measurements published in patent publication US20240018133A1, “MODULATORS OF THE INTEGRATED STRESS PATHWAY” (Calico Life Sciences LLC, priority 2019, published 2024).

Each compound was assayed on ATF4 luciferase reporter (human full-length ATF4 5'-UTR fused to firefly luciferase) in HEK293T cells (assay: ATF4-Luc assay (in vitro model of VWMD): HEK293T cells carrying ATF4 luciferase reporter, tunicamycin-treated). Settings: Homo sapiens, HEK-293T, 1 μg/mL tunicamycin, 7 hours, One Glo luminescence.
Type: cell-based
Method in brief: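 Reporter cells were stably generated by retroviral transduction and puromycin selection, then seeded at 30,000 cells/well. Next day, cells received 1 μg/mL tunicamycin with 200 nM test compound for 7 h, and luciferase luminescence was read with a one-step reagent. Values reported as EC50.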

Question: `O=C(COc1ccc(Cl)c(F)c1)NC12CCC(NC(=O)[C@H]3C[C@@H](O)c4cc(Cl)ccc4O3)(C1)C2` (racemic) [Compound 296, rac-(2R,4R)-6-chloro-N-{4-[2-(4-chloro-3-fluorophenoxy)acetamido]bicyclo[2.1.1]hexan-1-yl}-4-hydroxy-3,4-dihydro-2H-1-benzopyran-2-carboxamide] was tested. Which EC50 did it give?
Answer: < 10 nM

Question: With `O=C(COc1ccc(Cl)c(F)c1)NC12CC(NC(=O)c3cc(=O)c4ccc(C(F)(F)F)cc4o3)(C1)C2` [Compound 230, N-{3-[2-(4-chloro-3-fluorophenoxy)acetamido]bicyclo[1.1.1]pentan-1-yl}-4-oxo-7-(trifluoromethyl)-4H-1-benzopyran-2-carboxamide] as the compound, how does the EC50 read?
Answer: < 10 nM

Question: For `CS(=O)(=O)N[C@H]1C[C@H](C(=O)NC23CC(NC(=O)COc4ccc(Cl)c(F)c4)(C2)C3)Oc2ccc(Cl)cc21` [Compound 244, (2R,4S)-6-chloro-N-{3-[2-(4-chloro-3-fluorophenoxy)acetamido]bicyclo[1.1.1]pentan-1-yl}-4-[(methanesulfonyl)amino]-3,4-dihydro-2H-1-benzopyran-2-carboxamide], which EC50 is on record?
Answer: 10 to 50 nM

Question: For `O=C(COc1ccc(Cl)c(F)c1)NC12CCC(NC(=O)[C@H]3C[C@@H](O)c4cc(Cl)ccc4O3)(C1)C2` [Compound 256, (2R,4R)-6-chloro-N-{4-[2-(4-chloro-3-fluorophenoxy)acetamido]bicyclo[2.1.1]hexan-1-yl}-4-hydroxy-3,4-dihydro-2H-1-benzopyran-2-carboxamide], which EC50 is on record?
Answer: < 10 nM

Question: Which EC50 does the source give for `O=C(COc1ccc(Cl)c(F)c1)NC12CC(NC(=O)[C@H]3C[C@H](NCCO)c4cc(Cl)ccc4O3)(C1)C2` (racemic) [Compound 301, rac-(2R,4S)-6-chloro-N-{3-[2-(4-chloro-3-fluorophenoxy)acetamido]bicyclo[1.1.1]pentan-1-yl}-4-[(2-hydroxyethyl)amino]-3,4-dihydro-2H-1-benzopyran-2-carboxamide] here?
Answer: < 10 nM

Question: Which EC50 does the source give for `O=C(COc1ccc(Cl)c(F)c1)NC12CCC(NC(=O)[C@H]3C[C@@H](O)c4cc(Cl)ccc4O3)(CC1)CC2` [Compound 229, (2R,4R)-6-chloro-N-{4-[2-(4-chloro-3-fluorophenoxy)acetamido]bicyclo[2.2.2]octan-1-yl}-4-hydroxy-3,4-dihydro-2H-1-benzopyran-2-carboxamide] here?
Answer: < 10 nM

Question: How did the EC50 turn out when `O=C(COc1ccc(Cl)c(F)c1)N[C@@H]1C[C@@H]2O[C@H]1C[C@H]2NC(=O)[C@H]1C[C@@H](O)c2cc(Cl)ccc2O1` [Compound 375, (2R,4R)-6-chloro-N-{(1S,2R,4S,5R)-5-[2-(4-chloro-3-fluorophenoxy)acetamido]-7-oxabicyclo[2.2.1]heptan-2-yl}-4-hydroxy-3,4-dihydro-2H-1-benzopyran-2-carboxamide] was run?
Answer: < 10 nM

Question: For `O=C(NC12CCC(NC(=O)[C@H]3CC(=O)c4cc(Cl)ccc4O3)(CC1)C[C@@H]2O)c1cnc(C(F)F)cn1` [Compound 352, N-[(2S)-4-{[(2R)-6-chloro-4-oxo-3,4-dihydro-2H-1-benzopyran-2-carbonyl]amino}-2-hydroxybicyclo[2.2.2]octan-1-yl]-5-(difluoromethyl)pyrazine-2-carboxamide], which EC50 is on record?
Answer: 500 to 2000 nM

Question: Which EC50 does the source give for `O=C(COc1ccc(Cl)c(F)c1)NC12CC(NC(=O)[C@@H]3CC(=O)c4ccccc4O3)(C1)C2` [Compound 269, (2S)—N-{3-[2-(4-chloro-3-fluorophenoxy)acetamido]bicyclo[1.1.1]pentan-1-yl}-4-oxo-3,4-dihydro-2H-1-benzopyran-2-carboxamide] here?
Answer: 50 to 250 nM

Question: How did the EC50 turn out when `O=C(COc1ccc(Cl)c(F)c1)NC12CCC(NC(=O)[C@H]3C[C@@H](O)c4cc(Cl)ccc4O3)(CC1)NC2=O` (racemic) [Compound 364, rac-(2R,4R)-6-chloro-N-{4-[2-(4-chloro-3-fluorophenoxy)acetamido]-3-oxo-2-azabicyclo[2.2.2]octan-1-yl}-4-hydroxy-3,4-dihydro-2H-1-benzopyran-2-carboxamide] was run?
Answer: < 10 nM

Question: `O=C(COc1ccc(Cl)c(F)c1)NC12CC(NC(=O)C3COc4cc(Cl)ccc4C3)(C1)C2` (stereo not drawn) [Compound 345, 7-chloro-N-{3-[2-(4-chloro-3-fluorophenoxy)acetamido]bicyclo[1.1.1]pentan-1-yl}-3,4-dihydro-2H-1-benzopyran-3-carboxamide] was tested. Which EC50 did it give?
Answer: > 2000 nM

Question: `O=C(COc1ccc(Cl)c(F)c1)N[C@@H]1C[C@@H]2O[C@H]1C[C@H]2NC(=O)[C@H]1C[C@@H](O)c2cc(Cl)ccc2O1` (racemic) [Compound 370, (2R,4R)-6-chloro-N-{(1RS,2SR,4RS,5SR)-5-[2-(4-chloro-3-fluorophenoxy)acetamido]-7-oxabicyclo[2.2.1]heptan-2-yl}-4-hydroxy-3,4-dihydro-2H-1-benzopyran-2-carboxamide] was tested. Which EC50 did it give?
Answer: < 10 nM

Question: How did the EC50 turn out when `CN1CC(C(=O)NC23CC(NC(=O)COc4ccc(Cl)c(F)c4)(C2)C3)Oc2ccc(Cl)cc21` (stereo not drawn) [Compound 112, 6-chloro-N-{3-[2-(4-chloro-3-fluorophenoxy)acetamido]bicyclo[1.1.1]pentan-1-yl}-4-methyl-3,4-dihydro-2H-1,4-benzoxazine-2-carboxamide] was run?
Answer: < 10 nM

Question: With `CC(C)c1ccc2oc(C(=O)NC34CC(NC(=O)COc5ccc(Cl)c(F)c5)(C3)C4)cc(=O)c2c1` [Compound 290, N-{3-[2-(4-chloro-3-fluorophenoxy)acetamido]bicyclo[1.1.1]pentan-1-yl}-4-oxo-6-(propan-2-yl)-4H-1-benzopyran-2-carboxamide] as the compound, how does the EC50 read?
Answer: 10 to 50 nM

Question: For `Cc1cc(OCC(=O)NC23CC(NC(=O)[C@H]4C[C@@H](O)c5cc(F)c(F)cc5O4)(C2)C3)ccc1F` [Compound 359, (2R,4R)-6,7-difluoro-N-{3-[2-(4-fluoro-3-methylphenoxy)acetamido]bicyclo[1.1.1]pentan-1-yl}-4-hydroxy-3,4-dihydro-2H-1-benzopyran-2-carboxamide], which EC50 is on record?
Answer: < 10 nM

Question: With `COc1ccc2oc(C(=O)NC34CC(NC(=O)COc5ccc(Cl)c(F)c5)(C3)C4)cc(=O)c2n1` [Compound 322, N-{3-[2-(4-chloro-3-fluorophenoxy)acetamido]bicyclo[1.1.1]pentan-1-yl}-6-methoxy-4-oxo-4H-pyrano[3,2-b]pyridine-2-carboxamide] as the compound, how does the EC50 read?
Answer: 50 to 250 nM

Question: How did the EC50 turn out when `O=C(NC12CC(NC(=O)C3CC(=O)c4cc(Cl)ccc4O3)(C1)C2)c1cnc(C(F)F)cn1` (stereo not drawn) [Compound 217, N-{3-[(6-chloro-4-oxo-3,4-dihydro-2H-1-benzopyran-2-carbonyl)amino]bicyclo[1.1.1]pentan-1-yl}-5-(difluoromethyl)pyrazine-2-carboxamide] was run?
Answer: 50 to 250 nM

Question: How did the EC50 turn out when `C[C@]1(O)C[C@@H](C(=O)NC23CC(NC(=O)COc4ccc(Cl)c(F)c4)(C2)C3)Oc2ccc(Cl)cc21` (single isomer, unassigned) [Compound 237] was run?
Answer: < 10 nM
